The source of these data is PubChem BioAssay (NCI).

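96-well plates; 48 h exposure; 5 concentrations. Endpoints by linear interpolation between flanking doses. Not reached: highest tested concentration assigned. Abbreviation: GI50, concentration required for 50% inhibition of growth. Definition used: TGI = concentration required for complete inhibition of growth.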

By GI50 is commonly meant the concentration that inhibits growth by half. As usually defined, the TGI is the concentration at which net growth stops. Higher therefore signals less potent growth arrest.

Test systems include A549 NSCLC; SF-295 CNS; EKVX NSCLC; SF-539 CNS; MDA-MB-231 breast; UACC-257 melanoma; OVCAR-3 ovarian; OVCAR-5 ovarian; HOP-92 NSCLC; NCI-H226 lung.
Common to all, as to test: DTP human tumour cell line panel, 48 h

On to `C=CC(=O)N1CCN(c2ccc3cccc(NC(=O)c4cnc(C)cn4)c3n2)CC1`, for which the GI50 in the experiment with A549 NSCLC is 3.77 µM; in the experiment on SF-295 CNS it was 13.5 µM; in the experiment with EKVX NSCLC, 12.4 µM; in the experiment on SF-539 CNS it was 3.16 µM; in the experiment on MDA-MB-231 breast it was 3.5 µM; in the experiment on UACC-257 melanoma, 9.21 µM. The GI50 in the experiment on OVCAR-3 ovarian was 2.91 µM; in the experiment on OVCAR-5 ovarian, 16.5 µM; in the experiment on HOP-92 NSCLC, 2.68 µM; in the experiment on NCI-H226 lung, 4.44 µM. For the same compound, the TGI in the experiment with A549 NSCLC is above 100 µM; in the experiment with SF-295 CNS, above 100 µM; with EKVX NSCLC, above 100 µM; in the experiment on SF-539 CNS, 15.3 µM; in the experiment with MDA-MB-231 breast, above 100 µM; in the experiment on UACC-257 melanoma it was 36.7 µM. The TGI in the experiment on OVCAR-3 ovarian was above 100 µM; in the experiment with OVCAR-5 ovarian it was 81.7 µM; with HOP-92 NSCLC, above 100 µM; in the experiment with NCI-H226 lung it was 22.3 µM.

With `CN(C)c1ccc2c(c1)Sc1cc(N(C)C)ccc1N2C(=O)c1ccccc1`, the GI50 in the experiment with A549 NSCLC is 32.5 µM; with SF-295 CNS it was 10.1 µM; with EKVX NSCLC, 13.2 µM; with SF-539 CNS, 38.2 µM; in the experiment on MDA-MB-231 breast, 64.2 µM; with UACC-257 melanoma it was above 100 µM. The GI50 in the experiment with OVCAR-3 ovarian was 25.7 µM; in the experiment with OVCAR-5 ovarian, above 100 µM; in the experiment on HOP-92 NSCLC, 5.04 µM; in the experiment on NCI-H226 lung, 71.6 µM. Moreover, the TGI with A549 NSCLC, with SF-295 CNS, in the experiment with EKVX NSCLC, in the experiment on SF-539 CNS, with MDA-MB-231 breast and with UACC-257 melanoma was above 100 µM each time. Further, the total growth inhibition concentration (TGI) was above 100 µM in the experiment with OVCAR-3 ovarian, above 100 µM with OVCAR-5 ovarian, 89.9 µM in the experiment on HOP-92 NSCLC and above 100 µM in the experiment on NCI-H226 lung.

In the case of `COC(=O)C(Cc1ccccc1)NC(=O)NC(=O)NC(=O)CI` (centres undefined), the GI50 with A549 NSCLC was 20.2 µM; with SF-295 CNS, 16.4 µM; in the experiment on EKVX NSCLC, 11.9 µM; with SF-539 CNS it was 11.8 µM; in the experiment on MDA-MB-231 breast it was 5.2 µM; with UACC-257 melanoma it was 13.2 µM. The GI50 in the experiment on OVCAR-3 ovarian is 2.97 µM; with OVCAR-5 ovarian, 13 µM; with HOP-92 NSCLC, 2.51 µM; with NCI-H226 lung, 11.1 µM. For the same compound, the TGI in the experiment with A549 NSCLC came out at 38.9 µM; in the experiment on SF-295 CNS it was 31.2 µM; in the experiment with EKVX NSCLC it was 25.3 µM; with SF-539 CNS, 24.9 µM; in the experiment on MDA-MB-231 breast, 20.1 µM; with UACC-257 melanoma it was 26.5 µM. The TGI was determined as 8.89 µM with OVCAR-3 ovarian, 29.7 µM in the experiment with OVCAR-5 ovarian, 5.51 µM in the experiment with HOP-92 NSCLC and 39.3 µM in the experiment on NCI-H226 lung.

As for `Cc1ccc(C2=NOC3=c4ccccc4=CSC3=C2c2ccc([N+](=O)[O-])cc2)cc1`, the GI50 in the experiment with A549 NSCLC is 24.5 µM; in the experiment on SF-295 CNS, 13.3 µM; with EKVX NSCLC, 24.4 µM; in the experiment on SF-539 CNS it was 7.18 µM; in the experiment with MDA-MB-231 breast, 8.59 µM; in the experiment on UACC-257 melanoma, 44.4 µM. Further, the GI50 is 10 µM with OVCAR-3 ovarian, 25.2 µM in the experiment with OVCAR-5 ovarian, 18 µM with HOP-92 NSCLC and 14 µM in the experiment with NCI-H226 lung. For the same compound, the TGI in the experiment with A549 NSCLC was above 100 µM; in the experiment on SF-295 CNS, 49.9 µM; in the experiment on EKVX NSCLC it was 93.6 µM; in the experiment on SF-539 CNS it was 25.4 µM; in the experiment on MDA-MB-231 breast, 28 µM; in the experiment with UACC-257 melanoma, above 100 µM. The TGI was 41.9 µM with OVCAR-3 ovarian, above 100 µM with OVCAR-5 ovarian, 68.2 µM in the experiment with HOP-92 NSCLC and 34 µM in the experiment on NCI-H226 lung.

`O=C1C=C(Br)c2c(-c3ccccc3)oc3cccc1c23`: the total growth inhibition concentration (TGI) is above 100 µM in the experiment on A549 NSCLC; above 100 µM in the experiment with SF-295 CNS; above 100 µM in the experiment on EKVX NSCLC; above 94.2 µM with SF-539 CNS; 78.2 µM in the experiment with MDA-MB-231 breast; above 100 µM in the experiment on UACC-257 melanoma. The TGI with OVCAR-3 ovarian, in the experiment with OVCAR-5 ovarian, with HOP-92 NSCLC and in the experiment on NCI-H226 lung was above 100 µM throughout.

Regarding `O=C(N/N=C/c1ccc2c(c1)CCC2)c1ccccc1O`, the total growth inhibition concentration (TGI) in the experiment with A549 NSCLC is 57.5 µM; with SF-295 CNS, 36.6 µM; with EKVX NSCLC it was 92.2 µM; in the experiment with SF-539 CNS, 65.8 µM; with MDA-MB-231 breast it was 58.6 µM; in the experiment with UACC-257 melanoma it was 95.1 µM. Further, the TGI with OVCAR-3 ovarian was 41.5 µM; with OVCAR-5 ovarian it was above 100 µM; in the experiment with HOP-92 NSCLC, 65.3 µM; with NCI-H226 lung it was 77.7 µM.

Turning to `CC(=O)NC1=C(OS(=O)(=O)c2ccc(C)cc2)CN(C)C1=O`, the concentration for total growth inhibition (TGI) amounted to 15.3 µM in the experiment on A549 NSCLC; 13.9 µM in the experiment with SF-295 CNS; 14.2 µM in the experiment on EKVX NSCLC; 5.84 µM in the experiment on SF-539 CNS; 23.1 µM in the experiment with MDA-MB-231 breast; 11.8 µM in the experiment with UACC-257 melanoma. Moreover, the total growth inhibition concentration (TGI) with OVCAR-3 ovarian stood at 8.14 µM; in the experiment with OVCAR-5 ovarian, 32 µM; in the experiment with HOP-92 NSCLC, 8.49 µM; with NCI-H226 lung it was 62.7 µM.

Consider `O=C1C(=O)c2c(nc3ccc(Cl)cn23)-c2ccccc21`, for which the GI50 with A549 NSCLC is 0.84 µM; with SF-295 CNS it was 1.52 µM; with EKVX NSCLC, 1.65 µM; in the experiment with SF-539 CNS, 0.189 µM; in the experiment with MDA-MB-231 breast, 0.296 µM; in the experiment on UACC-257 melanoma it was 0.284 µM. The GI50 in the experiment with OVCAR-3 ovarian is 0.249 µM; in the experiment with OVCAR-5 ovarian it was 0.593 µM; with HOP-92 NSCLC it was 0.674 µM; in the experiment with NCI-H226 lung, 1.65 µM. Besides, the TGI with SF-295 CNS was determined as 3.13 µM; with EKVX NSCLC it was 3.38 µM; in the experiment with SF-539 CNS, 0.358 µM; with MDA-MB-231 breast it was 3.95 µM; with UACC-257 melanoma, 0.803 µM; in the experiment with OVCAR-3 ovarian, 0.908 µM. Further, the TGI in the experiment on OVCAR-5 ovarian amounted to 1.15 µM; with HOP-92 NSCLC, 1.98 µM; in the experiment with NCI-H226 lung, 3.49 µM.

For the compound `O[C@H]1CO[C@H]2[C@@H]1OC[C@@H]2Oc1ccc(Nc2ccnc(Nc3ccc(O[C@H]4CO[C@H]5[C@@H]4OC[C@@H]5O)c(Cl)c3)n2)cc1Cl`, the GI50 with A549 NSCLC was 2.84 µM; in the experiment with SF-295 CNS, 1.65 µM; in the experiment on EKVX NSCLC, 2.4 µM; with SF-539 CNS it was 2.22 µM; in the experiment with MDA-MB-231 breast, 1.81 µM; with UACC-257 melanoma it was 2.7 µM. In addition, the GI50 was 1.56 µM in the experiment on OVCAR-3 ovarian, 2.47 µM in the experiment with OVCAR-5 ovarian, 1.52 µM with HOP-92 NSCLC and 1.48 µM in the experiment on NCI-H226 lung. For the same compound, the TGI in the experiment with A549 NSCLC came to 11.5 µM; in the experiment on SF-295 CNS it was 3.22 µM; in the experiment with EKVX NSCLC, 8.86 µM; in the experiment on SF-539 CNS, 7.16 µM; with MDA-MB-231 breast it was 6.04 µM; in the experiment on UACC-257 melanoma, 10.2 µM. Further, the TGI amounted to 7.17 µM in the experiment with OVCAR-3 ovarian, 8.03 µM in the experiment with OVCAR-5 ovarian, 3.15 µM in the experiment on HOP-92 NSCLC and 3.61 µM in the experiment on NCI-H226 lung.
